In assay [1] the test system is MCF-7 (breast cancer cell). Nature of the assay: MTT antiproliferative assay (cell growth %, GI50), MCF-7. The assay is classed as cell-based. The settings on record: Homo sapiens, MCF7, 48 hours, MTT; for activity at 4000 µg/mL: 4 mg/ml; for activity at 20000 µg/mL: 20 mg/ml. How it is done: (§1) Antiproliferative activities of the compounds of this invention were evaluated substantially according to the method as described in Tseng, C. […] The cells were treated with the test compounds, i.e., the compounds of this invention (in dimethylsulfoxide (DMSO)), or DMSO for 48 hours.
(§2) Before and after the treatment with the test compounds or DMSO, 3-(4,5-dimethylthiazol-2-yl)-2,5-diphenyltetrazolium bromide (MTT, 2 mg/mL, 100 μL) was added to each of the cultures, followed by cultivation for 2 hours. The resultant formazan was dissolved by the addition of DMSO. Absorbance at 570 nm (OD570) was measured using a microtiter plate reader (Dynex MRX-II).
(§3) Determination of GI50 was conducted thrice for each test compound. GI50 is expressed as mean±SD.

The test system of assay [2] is NCI-H460 (non-small cell lung carcinoma cell). Nature of the assay: MTT antiproliferative assay (cell growth %, GI50), NCI-H460. The assay is classed as cell-based. The settings on record: Homo sapiens, NCI-H460, 48 hours, MTT; for activity at 4000 µg/mL: 4 mg/ml; for activity at 20000 µg/mL: 20 mg/ml. The method, then: as §1, §2, §3

In the case of `C/C(=N\OCCN(C)C)c1ccc(Nc2c3ccccc3nc3occc23)cc1` [Compound 13b, (E)-1-(4-(Furo[2,3-b]quinolin-4-ylamino)phenyl)ethanone O-2-(dimethylamino)ethyl oxime], the activity at 4000 µg/mL in assay [1] was found to be 59%; in assay [2] it was 94%. In addition, the activity at 20000 µg/mL in assay [1] and in assay [2] was 0% in each case.

As for `C/C(=N\OCCCN(C)C)c1ccc(Nc2c3ccccc3nc3occc23)cc1` [Compound 13d, (E)-1-(4-(Furo[2,3-b]quinolin-4-ylamino)phenyl)ethanone O-3-(dimethylamino)propyl oxime], in assay [1], the activity at 4000 µg/mL was 84% and the activity at 20000 µg/mL was 22%. Moreover, in assay [2], the activity at 4000 µg/mL stood at 52% and the activity at 20000 µg/mL was 7%.

Regarding `C/C(=N\OCCN1CCCC1)c1ccc(Nc2c3ccccc3nc3occc23)cc1` [Compound 13e, (E)-1-(4-(Furo[2,3-b]quinolin-4-ylamino)phenyl)ethanone O-2-(pyrrolidin-1-yl)ethyl oxime], in assay [1], the activity at 4000 µg/mL turned out to be 64% and the activity at 20000 µg/mL was 6%. Further, in assay [2], the activity at 4000 µg/mL is 54% and the activity at 20000 µg/mL came out at 1%.

Turning to `C/C(=N\OCCN1CCCCC1)c1ccc(Nc2c3ccccc3nc3occc23)cc1` [Compound 13f, (E)-1-(4-(Furo[2,3-b]quinolin-4-ylamino)phenyl)ethanone O-2-(piperidin-1-yl)ethyl oxime], in assay [1], the activity at 4000 µg/mL was determined as 114% and the activity at 20000 µg/mL was found to be 3%. Further, in assay [2], the activity at 4000 µg/mL came to 99% and the activity at 20000 µg/mL is -1%.

`C/C(=N\OCCN1CCOCC1)c1ccc(Nc2c3ccccc3nc3occc23)cc1` [Compound 13g, (E)-1-(4-(Furo[2,3-b]quinolin-4-ylamino)phenyl)ethanone O-2-morpholinoethyl oxime]: the activity at 4000 µg/mL in assay [1] came out at 120%; in assay [2], 108%. Moreover, the activity at 20000 µg/mL turned out to be 56% in assay [1] and 23% in assay [2].

`C/C(=N\OCCCCN1CCOCC1)c1ccc(Nc2c3ccccc3nc3occc23)cc1` [Compound 13h, (E)-1-(4-(Furo[2,3-b]quinolin-4-ylamino)phenyl)ethanone O-4-morpholinobutyl oxime]: in assay [1], the activity at 4000 µg/mL was found to be 76% and the activity at 20000 µg/mL was -2%. Also, in assay [2], the activity at 4000 µg/mL is 118% and the activity at 20000 µg/mL was -1%.

Take `C/C(=N\OCCN(C)C)c1ccc(Nc2c3ccccc3nc3occ(Cl)c23)cc1` [Compound 14b, (E)-1-(4-(3-Chlorofuro[2,3-b]quinolin-4-ylamino)phenyl)ethanone O-2-(dimethylamino)ethyl oxime]: in assay [1], the activity at 4000 µg/mL was determined as 70% and the activity at 20000 µg/mL is -3%. Besides, in assay [2], the activity at 4000 µg/mL came to 68% and the activity at 20000 µg/mL was -1%.

Turning to `C/C(=N\OCCCN(C)C)c1ccc(Nc2c3ccccc3nc3occ(Cl)c23)cc1` [Compound 14d, (E)-1-(4-(3-Chlorofuro[2,3-b]quinolin-4-ylamino)phenyl)ethanone O-3-(dimethylamino)propyl oxime], the activity at 4000 µg/mL in assay [1] is 61%; in assay [2] it was 52%. Also, the activity at 20000 µg/mL in assay [1] and in assay [2] was 1% throughout.

`C/C(=N\OCCN1CCCC1)c1ccc(Nc2c3ccccc3nc3occ(Cl)c23)cc1` [Compound 14e, (E)-1-(4-(3-Chlorofuro[2,3-b]quinolin-4-ylamino)phenyl)ethanone O-2-(pyrrolidin-1-yl)ethyl oxime]: the activity at 4000 µg/mL was determined as 86% in assay [1] and 69% in assay [2]. In addition, the results for the activity at 20000 µg/mL in assay [1] and in assay [2] were -2% and -1%, respectively.

For `C/C(=N\OCCN1CCCCC1)c1ccc(Nc2c3ccccc3nc3occ(Cl)c23)cc1` [Compound 14f, (E)-1-(4-(3-Chlorofuro[2,3-b]quinolin-4-ylamino)phenyl)ethanone O-2-(piperidin-1-yl)ethyl oxime], in assay [1], the activity at 4000 µg/mL is 121% and the activity at 20000 µg/mL stood at 26%. Moreover, in assay [2], the activity at 4000 µg/mL was 101% and the activity at 20000 µg/mL was determined as 3%.

As to `C/C(=N\OCCN1CCOCC1)c1ccc(Nc2c3ccccc3nc3occ(Cl)c23)cc1` [Compound 14g, (E)-1-(4-(3-Chlorofuro[2,3-b]quinolin-4-ylamino)phenyl)ethanone O-2-morpholinoethyl oxime], in assay [1], the activity at 4000 µg/mL was 112% and the activity at 20000 µg/mL was 54%. Further, in assay [2], the activity at 4000 µg/mL was found to be 107% and the activity at 20000 µg/mL was found to be 16%.

With `C/C(=N\OCCCCN1CCOCC1)c1ccc(Nc2c3ccccc3nc3occ(Cl)c23)cc1` [Compound 14h, (E)-1-(4-(3-Chlorofuro[2,3-b]quinolin-4-ylamino)phenyl)ethanone O-4-morpholinobutyl oxime], the activity at 4000 µg/mL in assay [1] was determined as 75%; in assay [2], 91%. Besides, the activity at 20000 µg/mL in assay [1] is -3%; in assay [2], 3%.

In the case of `COc1ccc2c(Nc3ccc(/C(C)=N/OCCN(C)C)cc3)c3ccoc3nc2c1` [Compound 15b, (E)-1-(4-(7-Methoxyfuro[2,3-b]quinolin-4-ylamino)phenyl)ethanone O-2-(dimethylamino)ethyl oxime], in assay [1], the activity at 4000 µg/mL is 67% and the activity at 20000 µg/mL is -1%. In addition, in assay [2], the activity at 4000 µg/mL came to 75% and the activity at 20000 µg/mL is -1%.

Regarding `COc1ccc2c(Nc3ccc(/C(C)=N/OCCCN)cc3)c3ccoc3nc2c1` [Compound 15c, (E)-1-(4-(7-Methoxyfuro[2,3-b]quinolin-4-ylamino)phenyl)ethanone O-3-aminopropyl oxime], in assay [1], the activity at 4000 µg/mL was determined as 100% and the activity at 20000 µg/mL came to 18%. Also, in assay [2], the activity at 4000 µg/mL stood at 105% and the activity at 20000 µg/mL was determined as 16%.

In the case of `COc1ccc2c(Nc3ccc(/C(C)=N/OCCCN(C)C)cc3)c3ccoc3nc2c1` [Compound 15d, (E)-1-(4-(7-Methoxyfuro[2,3-b]quinolin-4-ylamino)phenyl)ethanone O-3-(dimethylamino)propyl oxime], in assay [1], the activity at 4000 µg/mL was determined as 59% and the activity at 20000 µg/mL came to 2%. In assay [2], the activity at 4000 µg/mL is 82% and the activity at 20000 µg/mL is 5%.

With `COc1ccc2c(Nc3ccc(/C(C)=N/OCCN4CCCC4)cc3)c3ccoc3nc2c1` [Compound 15e, (E)-1-(4-(7-Methoxyfuro[2,3-b]quinolin-4-ylamino)phenyl)ethanone O-2-(pyrrolidin-1-yl)ethyl oxime], in assay [1], the activity at 4000 µg/mL was 63% and the activity at 20000 µg/mL was found to be 3%. Moreover, in assay [2], the activity at 4000 µg/mL turned out to be 69% and the activity at 20000 µg/mL was determined as 5%.

As to `COc1ccc2c(Nc3ccc(/C(C)=N/OCCN4CCCCC4)cc3)c3ccoc3nc2c1` [Compound 15f, (E)-1-(4-(7-Methoxyfuro[2,3-b]quinolin-4-ylamino)phenyl)ethanone O-2-(piperidin-1-yl)ethyl oxime], in assay [1], the activity at 4000 µg/mL came to 77% and the activity at 20000 µg/mL is 2%. In assay [2], the activity at 4000 µg/mL turned out to be 84% and the activity at 20000 µg/mL is 9%.

For the molecule `COc1ccc2c(Nc3ccc(/C(C)=N/OCCN4CCOCC4)cc3)c3ccoc3nc2c1` [Compound 15g, (E)-1-(4-(7-Methoxyfuro[2,3-b]quinolin-4-ylamino)phenyl)ethanone O-2-morpholinoethyl oxime], the values for the activity at 4000 µg/mL in assay [1] and in assay [2] were 76% and 96%, respectively. In addition, the activity at 20000 µg/mL turned out to be 25% in assay [1] and 44% in assay [2].

Take `COc1ccc2c(Nc3ccc(/C(C)=N/OCCCCN4CCOCC4)cc3)c3ccoc3nc2c1` [Compound 15h, (E)-1-(4-(7-Methoxyfuro[2,3-b]quinolin-4-ylamino)phenyl)ethanone O-4-morpholinobutyl oxime]: the activity at 4000 µg/mL is 83% in assay [1] and 89% in assay [2]. For the same molecule, the activity at 20000 µg/mL came out at 75% in assay [1] and 21% in assay [2].

With `COc1ccc2c(Nc3ccc(/C(C)=N/OCCCN)cc3)c3c(Cl)coc3nc2c1` [Compound 16c, (E)-1-(4-(3-Chloro-7-methoxyfuro[2,3-b]quinolin-4-ylamino)phenyl)ethanone O-3-aminopropyl oxime], in assay [1], the activity at 4000 µg/mL came to 101% and the activity at 20000 µg/mL was 3%. Also, in assay [2], the activity at 4000 µg/mL was 91% and the activity at 20000 µg/mL is 8%.

For the molecule `COc1ccc2c(Nc3ccc(/C(C)=N/OCCN4CCCC4)cc3)c3c(Cl)coc3nc2c1` [Compound 16e, (E)-1-(4-(3-Chloro-7-methoxyfuro[2,3-b]quinolin-4-ylamino)phenyl)ethanone O-2-(pyrrolidin-1-yl)ethyl oxime], in assay [1], the activity at 4000 µg/mL came out at 55% and the activity at 20000 µg/mL came out at 1%. In assay [2], the activity at 4000 µg/mL stood at 53% and the activity at 20000 µg/mL was determined as 5%.

Regarding `COc1ccc2c(Nc3ccc(/C(C)=N/OCCN4CCCCC4)cc3)c3c(Cl)coc3nc2c1` [Compound 16f, (E)-1-(4-(3-Chloro-7-methoxyfuro[2,3-b]quinolin-4-ylamino)phenyl)ethanone O-2-(piperidin-1-yl)ethyl oxime], in assay [1], the activity at 4000 µg/mL came out at 56% and the activity at 20000 µg/mL is -1%. In assay [2], the activity at 4000 µg/mL was determined as 67% and the activity at 20000 µg/mL is 3%.

The values above are taken from US8952033B2, “4-anilinofuro[2,3-b]quinoline derivatives, their preparation processes, and pharmaceutical compositions comprising the same” (Kaohsiung Medical University, priority 2011, dated 2015).
